Measured values published in ChEMBL document CHEMBL3867474, “Discovery of novel pyrrolidineoxy-substituted heteroaromatics as potent and selective PI3K delta inhibitors with improved physicochemical properties” (Bioorg Med Chem Lett, 2016).
pIC50: −log10 of the molar value. ≈ marks a conversion by molar mass, not a printed value.

target: T1, Phosphatidylinositol 4,5-bisphosphate 3-kinase catalytic subunit alpha isoform (Homo sapiens, UniProt P42336); assay: Inhibition of PI3K-alpha (unknown origin) by KinaseGlo assay; conditions: not given
T1 sequence (P42336 whole entry, canonical isoform): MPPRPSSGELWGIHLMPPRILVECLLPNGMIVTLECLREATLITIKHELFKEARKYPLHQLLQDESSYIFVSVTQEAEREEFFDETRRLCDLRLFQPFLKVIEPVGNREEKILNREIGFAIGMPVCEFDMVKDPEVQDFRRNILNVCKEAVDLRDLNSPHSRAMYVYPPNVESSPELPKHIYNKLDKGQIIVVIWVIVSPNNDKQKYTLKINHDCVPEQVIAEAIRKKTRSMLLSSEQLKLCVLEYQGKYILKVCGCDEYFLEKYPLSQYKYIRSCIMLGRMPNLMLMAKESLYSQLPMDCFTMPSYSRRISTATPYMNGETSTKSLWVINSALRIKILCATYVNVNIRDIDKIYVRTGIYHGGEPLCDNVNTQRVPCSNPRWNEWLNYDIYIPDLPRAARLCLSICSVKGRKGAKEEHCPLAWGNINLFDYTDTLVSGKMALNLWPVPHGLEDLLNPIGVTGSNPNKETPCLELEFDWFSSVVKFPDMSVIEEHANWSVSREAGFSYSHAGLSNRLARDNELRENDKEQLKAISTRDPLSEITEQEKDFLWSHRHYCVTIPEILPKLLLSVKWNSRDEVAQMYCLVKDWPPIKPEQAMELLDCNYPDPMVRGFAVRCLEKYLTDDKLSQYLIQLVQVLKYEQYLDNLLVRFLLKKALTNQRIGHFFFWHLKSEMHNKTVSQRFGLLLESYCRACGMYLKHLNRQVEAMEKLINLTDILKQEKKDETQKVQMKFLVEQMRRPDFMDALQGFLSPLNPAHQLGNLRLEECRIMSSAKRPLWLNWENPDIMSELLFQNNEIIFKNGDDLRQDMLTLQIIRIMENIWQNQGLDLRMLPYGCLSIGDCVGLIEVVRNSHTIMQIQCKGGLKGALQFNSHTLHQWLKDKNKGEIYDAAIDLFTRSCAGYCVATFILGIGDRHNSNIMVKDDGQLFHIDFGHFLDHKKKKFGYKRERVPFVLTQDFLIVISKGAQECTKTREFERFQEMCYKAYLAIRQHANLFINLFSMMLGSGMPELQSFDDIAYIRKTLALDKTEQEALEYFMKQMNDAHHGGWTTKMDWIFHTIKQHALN

Structure (SMILES) | pIC50
CCC(=O)N1CC[C@@H](Oc2cnc3ccc(-c4ccc(OC)c(OC)c4)cc3n2)C1 | 6.31
CCC(=O)N1CC[C@H](Oc2ccnc3ccc(-c4ccc(OC)nc4)cc23)C1 | 6.66
COc1ccc(-c2ccc3ncnc(O[C@H]4CCN(C(=O)OC(C)(C)C)C4)c3c2)cc1OC | 6.83
CCC(=O)N1CC[C@H](Oc2cnnc3ccc(-c4ccc(OC)nc4)cc23)C1 | 5.29

target: T2, Phosphatidylinositol 4,5-bisphosphate 3-kinase catalytic subunit beta isoform (Homo sapiens, UniProt P42338); assay: Inhibition of PI3K-beta (unknown origin) by KinaseGlo assay; conditions: not given
T2 sequence (P42338 whole entry, canonical isoform): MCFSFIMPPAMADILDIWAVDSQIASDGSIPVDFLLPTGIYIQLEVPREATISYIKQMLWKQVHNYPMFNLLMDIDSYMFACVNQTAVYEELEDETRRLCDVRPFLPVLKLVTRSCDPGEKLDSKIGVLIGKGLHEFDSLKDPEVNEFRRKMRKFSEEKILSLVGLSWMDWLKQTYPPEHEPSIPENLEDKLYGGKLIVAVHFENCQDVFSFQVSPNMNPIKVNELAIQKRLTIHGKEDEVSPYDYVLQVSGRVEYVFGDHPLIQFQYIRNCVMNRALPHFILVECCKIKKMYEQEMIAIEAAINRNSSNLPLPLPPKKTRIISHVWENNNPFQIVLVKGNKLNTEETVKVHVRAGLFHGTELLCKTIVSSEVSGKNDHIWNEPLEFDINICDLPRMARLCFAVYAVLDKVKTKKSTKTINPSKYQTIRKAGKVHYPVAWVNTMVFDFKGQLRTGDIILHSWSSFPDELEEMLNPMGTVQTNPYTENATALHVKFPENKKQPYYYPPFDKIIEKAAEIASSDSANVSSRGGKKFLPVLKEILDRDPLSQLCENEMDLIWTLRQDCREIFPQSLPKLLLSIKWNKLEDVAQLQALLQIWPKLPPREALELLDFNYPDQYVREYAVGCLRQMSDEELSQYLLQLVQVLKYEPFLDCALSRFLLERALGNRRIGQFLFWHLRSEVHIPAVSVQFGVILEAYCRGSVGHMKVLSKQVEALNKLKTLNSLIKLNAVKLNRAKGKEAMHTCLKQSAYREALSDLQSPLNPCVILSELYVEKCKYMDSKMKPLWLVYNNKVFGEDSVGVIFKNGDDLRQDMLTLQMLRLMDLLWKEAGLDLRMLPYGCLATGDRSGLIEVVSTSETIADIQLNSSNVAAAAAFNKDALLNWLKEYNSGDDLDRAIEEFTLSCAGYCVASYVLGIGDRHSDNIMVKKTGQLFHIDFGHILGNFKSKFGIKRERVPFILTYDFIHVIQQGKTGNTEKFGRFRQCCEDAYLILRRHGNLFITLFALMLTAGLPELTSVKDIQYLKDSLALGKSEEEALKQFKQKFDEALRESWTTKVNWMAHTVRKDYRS

Structure (SMILES) | pIC50
CCC(=O)N1CC[C@@H](Oc2cnc3ccc(-c4ccc(OC)c(OC)c4)cc3n2)C1 | 6.07
CCC(=O)N1CC[C@H](Oc2ccnc3ccc(-c4ccc(OC)nc4)cc23)C1 | 6.18
COc1ccc(-c2ccc3ncnc(O[C@H]4CCN(C(=O)OC(C)(C)C)C4)c3c2)cc1OC | 6.02
CCC(=O)N1CC[C@H](Oc2cnnc3ccc(-c4ccc(OC)nc4)cc23)C1 | 5.05

target: Phosphatidylinositol 4,5-bisphosphate 3-kinase catalytic subunit gamma isoform (Homo sapiens, UniProt P48736); assay: Inhibition of PI3K-gamma (unknown origin) by KinaseGlo assay; conditions: not given
Sequence (P48736 whole entry, canonical isoform): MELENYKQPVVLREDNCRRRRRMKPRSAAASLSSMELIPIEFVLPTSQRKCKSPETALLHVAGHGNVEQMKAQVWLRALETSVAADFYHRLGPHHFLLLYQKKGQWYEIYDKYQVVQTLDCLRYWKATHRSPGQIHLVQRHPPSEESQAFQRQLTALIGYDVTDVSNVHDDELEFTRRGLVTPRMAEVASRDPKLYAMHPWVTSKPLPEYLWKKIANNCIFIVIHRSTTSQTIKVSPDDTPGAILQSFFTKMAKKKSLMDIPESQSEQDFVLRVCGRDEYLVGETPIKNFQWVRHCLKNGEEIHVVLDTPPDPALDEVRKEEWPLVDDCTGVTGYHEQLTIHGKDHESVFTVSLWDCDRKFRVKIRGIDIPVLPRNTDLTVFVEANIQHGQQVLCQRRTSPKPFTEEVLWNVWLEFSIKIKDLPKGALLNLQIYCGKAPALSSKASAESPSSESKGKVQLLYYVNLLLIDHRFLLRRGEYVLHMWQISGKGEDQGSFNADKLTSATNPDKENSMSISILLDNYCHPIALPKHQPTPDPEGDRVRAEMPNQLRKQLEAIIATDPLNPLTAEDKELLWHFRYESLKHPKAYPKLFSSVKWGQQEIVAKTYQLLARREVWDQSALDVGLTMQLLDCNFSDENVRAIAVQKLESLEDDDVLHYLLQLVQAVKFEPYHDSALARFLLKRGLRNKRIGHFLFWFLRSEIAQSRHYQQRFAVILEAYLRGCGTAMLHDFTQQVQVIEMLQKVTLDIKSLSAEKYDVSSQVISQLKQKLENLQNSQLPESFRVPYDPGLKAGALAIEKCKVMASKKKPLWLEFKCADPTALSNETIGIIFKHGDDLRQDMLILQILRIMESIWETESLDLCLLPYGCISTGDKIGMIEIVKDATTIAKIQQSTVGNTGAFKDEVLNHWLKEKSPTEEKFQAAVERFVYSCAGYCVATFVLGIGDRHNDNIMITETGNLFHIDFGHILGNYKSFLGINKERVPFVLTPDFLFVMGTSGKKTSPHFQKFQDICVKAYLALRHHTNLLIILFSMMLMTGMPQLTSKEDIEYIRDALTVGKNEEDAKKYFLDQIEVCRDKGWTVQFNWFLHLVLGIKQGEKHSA

Structure (SMILES) | pIC50
CCC(=O)N1CC[C@@H](Oc2cnc3ccc(-c4ccc(OC)c(OC)c4)cc3n2)C1 | 6.44
CCC(=O)N1CC[C@H](Oc2ccnc3ccc(-c4ccc(OC)nc4)cc23)C1 | 6.08
COc1ccc(-c2ccc3ncnc(O[C@H]4CCN(C(=O)OC(C)(C)C)C4)c3c2)cc1OC | 6.55
CCC(=O)N1CC[C@H](Oc2cnnc3ccc(-c4ccc(OC)nc4)cc23)C1 | < 5.04

target: T3, Phosphatidylinositol 4,5-bisphosphate 3-kinase catalytic subunit delta isoform (Homo sapiens, UniProt O00329); assay: Inhibition of PI3K-delta (unknown origin) by KinaseGlo assay; conditions: not given
T3 sequence (O00329 whole entry): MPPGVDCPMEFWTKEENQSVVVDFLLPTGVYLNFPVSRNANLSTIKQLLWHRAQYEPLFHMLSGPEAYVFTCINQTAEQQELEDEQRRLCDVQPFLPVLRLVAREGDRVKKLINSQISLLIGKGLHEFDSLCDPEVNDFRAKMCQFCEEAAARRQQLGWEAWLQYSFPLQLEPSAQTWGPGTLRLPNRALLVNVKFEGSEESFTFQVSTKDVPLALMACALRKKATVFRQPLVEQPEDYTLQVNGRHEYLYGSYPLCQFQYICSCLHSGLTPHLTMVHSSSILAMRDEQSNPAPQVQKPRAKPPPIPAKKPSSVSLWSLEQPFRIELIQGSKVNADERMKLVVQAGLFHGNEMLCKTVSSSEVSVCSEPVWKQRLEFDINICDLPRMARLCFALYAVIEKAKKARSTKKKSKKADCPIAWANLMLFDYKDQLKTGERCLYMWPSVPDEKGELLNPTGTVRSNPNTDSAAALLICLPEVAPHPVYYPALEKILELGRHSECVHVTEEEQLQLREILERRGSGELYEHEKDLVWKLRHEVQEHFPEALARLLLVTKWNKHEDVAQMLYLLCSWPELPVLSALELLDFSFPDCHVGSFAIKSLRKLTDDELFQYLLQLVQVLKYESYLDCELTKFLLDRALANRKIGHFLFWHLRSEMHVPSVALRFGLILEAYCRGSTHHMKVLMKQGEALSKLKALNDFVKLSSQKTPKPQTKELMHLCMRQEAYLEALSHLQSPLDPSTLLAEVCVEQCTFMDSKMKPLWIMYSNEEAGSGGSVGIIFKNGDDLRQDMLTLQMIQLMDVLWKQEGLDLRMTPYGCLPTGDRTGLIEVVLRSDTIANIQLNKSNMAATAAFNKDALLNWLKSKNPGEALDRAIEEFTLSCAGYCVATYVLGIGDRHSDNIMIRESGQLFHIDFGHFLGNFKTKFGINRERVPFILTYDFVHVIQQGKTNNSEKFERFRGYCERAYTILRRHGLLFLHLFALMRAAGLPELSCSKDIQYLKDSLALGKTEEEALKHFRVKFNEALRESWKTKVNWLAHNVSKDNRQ

Structure (SMILES) | pIC50
CCC(=O)N1CC[C@@H](Oc2cnc3ccc(-c4ccc(OC)c(OC)c4)cc3n2)C1 | 7.82
CCC(=O)N1CC[C@H](Oc2ccnc3ccc(-c4ccc(OC)nc4)cc23)C1 | 7.96
COc1ccc(-c2ccc3ncnc(O[C@H]4CCN(C(=O)OC(C)(C)C)C4)c3c2)cc1OC | 8.00
CCC(=O)N1CC[C@H](Oc2cnnc3ccc(-c4ccc(OC)nc4)cc23)C1 | 6.73

target: T1, Phosphatidylinositol 4,5-bisphosphate 3-kinase catalytic subunit alpha isoform; assay: Inhibition of myristoylated PI3K-alpha (unknown origin) overexpressed in Rat1 cells assessed as inhibition of Akt phosphorylation; assay type: cell-based; conditions: not given

Structure (SMILES) | pIC50
CCC(=O)N1CC[C@@H](Oc2cnc3ccc(-c4ccc(OC)c(OC)c4)cc3n2)C1 | 5.73
CCC(=O)N1CC[C@H](Oc2ccnc3ccc(-c4ccc(OC)nc4)cc23)C1 | 6.22
COc1ccc(-c2ccc3ncnc(O[C@H]4CCN(C(=O)OC(C)(C)C)C4)c3c2)cc1OC | 6.58
CCC(=O)N1CC[C@H](Oc2cnnc3ccc(-c4ccc(OC)nc4)cc23)C1 | < 5.00

target: T2, Phosphatidylinositol 4,5-bisphosphate 3-kinase catalytic subunit beta isoform; assay: Inhibition of myristoylated PI3K-beta (unknown origin) overexpressed in Rat1 cells assessed as inhibition of Akt phosphorylation; assay type: cell-based; conditions: not given

Structure (SMILES) | pIC50
CCC(=O)N1CC[C@@H](Oc2cnc3ccc(-c4ccc(OC)c(OC)c4)cc3n2)C1 | 5.67
CCC(=O)N1CC[C@H](Oc2ccnc3ccc(-c4ccc(OC)nc4)cc23)C1 | 6.06
COc1ccc(-c2ccc3ncnc(O[C@H]4CCN(C(=O)OC(C)(C)C)C4)c3c2)cc1OC | 5.82
CCC(=O)N1CC[C@H](Oc2cnnc3ccc(-c4ccc(OC)nc4)cc23)C1 | < 5.00

target: T3, Phosphatidylinositol 4,5-bisphosphate 3-kinase catalytic subunit delta isoform; assay: Inhibition of myristoylated PI3K-delta (unknown origin) overexpressed in Rat1 cells assessed as inhibition of Akt phosphorylation; assay type: cell-based; conditions: not given

Structure (SMILES) | pIC50
CCC(=O)N1CC[C@@H](Oc2cnc3ccc(-c4ccc(OC)c(OC)c4)cc3n2)C1 | 7.14
CCC(=O)N1CC[C@H](Oc2ccnc3ccc(-c4ccc(OC)nc4)cc23)C1 | 6.79
COc1ccc(-c2ccc3ncnc(O[C@H]4CCN(C(=O)OC(C)(C)C)C4)c3c2)cc1OC | 7.36
CCC(=O)N1CC[C@H](Oc2cnnc3ccc(-c4ccc(OC)nc4)cc23)C1 | 5.55

target: T4, Phosphatidylinositol 4,5-bisphosphate 3-kinase catalytic subunit delta isoform (Mus musculus, UniProt O35904); assay: Inhibition of PI3K-delta in mouse splenocytes assessed as inhibition anti-IgM induced CD86 expression; assay type: cell-based; conditions: not given
T4 sequence (O35904 whole entry): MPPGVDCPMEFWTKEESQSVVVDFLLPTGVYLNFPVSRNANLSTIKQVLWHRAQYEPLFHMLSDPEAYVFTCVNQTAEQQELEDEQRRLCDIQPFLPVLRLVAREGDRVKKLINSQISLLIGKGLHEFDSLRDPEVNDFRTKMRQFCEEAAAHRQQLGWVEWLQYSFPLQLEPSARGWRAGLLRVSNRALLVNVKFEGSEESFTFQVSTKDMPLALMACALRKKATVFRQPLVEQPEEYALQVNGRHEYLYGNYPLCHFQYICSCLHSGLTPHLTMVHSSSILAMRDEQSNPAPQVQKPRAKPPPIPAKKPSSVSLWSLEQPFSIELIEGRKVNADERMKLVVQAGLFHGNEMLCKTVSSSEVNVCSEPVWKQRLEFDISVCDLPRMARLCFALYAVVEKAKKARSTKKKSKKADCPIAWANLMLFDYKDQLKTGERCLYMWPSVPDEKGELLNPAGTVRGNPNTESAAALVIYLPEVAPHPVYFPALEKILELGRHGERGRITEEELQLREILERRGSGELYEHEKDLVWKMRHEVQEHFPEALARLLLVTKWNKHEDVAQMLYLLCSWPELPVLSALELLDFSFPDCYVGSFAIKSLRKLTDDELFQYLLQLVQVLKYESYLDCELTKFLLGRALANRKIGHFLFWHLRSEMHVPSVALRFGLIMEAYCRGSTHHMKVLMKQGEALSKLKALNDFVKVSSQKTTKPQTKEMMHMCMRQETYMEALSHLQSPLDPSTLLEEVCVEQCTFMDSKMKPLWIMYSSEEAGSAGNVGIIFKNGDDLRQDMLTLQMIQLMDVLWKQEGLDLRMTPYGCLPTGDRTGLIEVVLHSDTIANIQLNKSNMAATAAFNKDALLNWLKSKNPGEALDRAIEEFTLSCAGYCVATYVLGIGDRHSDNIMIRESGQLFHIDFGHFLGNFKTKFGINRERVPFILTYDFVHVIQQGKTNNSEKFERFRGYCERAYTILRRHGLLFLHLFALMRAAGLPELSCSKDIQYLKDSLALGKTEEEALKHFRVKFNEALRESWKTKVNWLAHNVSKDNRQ

Structure (SMILES) | pIC50
CCC(=O)N1CC[C@@H](Oc2cnc3ccc(-c4ccc(OC)c(OC)c4)cc3n2)C1 | 7.07
CCC(=O)N1CC[C@H](Oc2ccnc3ccc(-c4ccc(OC)nc4)cc23)C1 | 6.81

system: not listed separately; assay: Inhibition of PI3K-delta in rat whole blood assessed as inhibition of anti-IgM/IL4 induced CD86 expression; assay type: tissue-based; conditions: not given

Structure (SMILES) | pIC50
CCC(=O)N1CC[C@@H](Oc2cnc3ccc(-c4ccc(OC)c(OC)c4)cc3n2)C1 | 6.55
CCC(=O)N1CC[C@H](Oc2ccnc3ccc(-c4ccc(OC)nc4)cc23)C1 | 6.42

system: not listed separately; assay: Lipophilicity, log P of the compound by high-throughput assay; assay type: physicochemical; conditions: octanol/water

Structure (SMILES) | logP
CCC(=O)N1CC[C@@H](Oc2cnc3ccc(-c4ccc(OC)c(OC)c4)cc3n2)C1 | 3.8
CCC(=O)N1CC[C@H](Oc2ccnc3ccc(-c4ccc(OC)nc4)cc23)C1 | 3.4
COc1ccc(-c2ccc3ncnc(O[C@H]4CCN(C(=O)OC(C)(C)C)C4)c3c2)cc1OC | 5.3
CCC(=O)N1CC[C@H](Oc2cnnc3ccc(-c4ccc(OC)nc4)cc23)C1 | 2.8

system: not listed separately; assay: Solubility of the compound at pH 6.8 by high-throughput equilibrium analysis; assay type: physicochemical; conditions: buffer

Structure (SMILES) | solubility thermodynamic [µM]
CCC(=O)N1CC[C@@H](Oc2cnc3ccc(-c4ccc(OC)c(OC)c4)cc3n2)C1 | 40 (≈ 16.3 µg/mL)
CCC(=O)N1CC[C@H](Oc2ccnc3ccc(-c4ccc(OC)nc4)cc23)C1 | > 1000
COc1ccc(-c2ccc3ncnc(O[C@H]4CCN(C(=O)OC(C)(C)C)C4)c3c2)cc1OC | 9 (≈ 4.06 µg/mL)
CCC(=O)N1CC[C@H](Oc2cnnc3ccc(-c4ccc(OC)nc4)cc23)C1 | 370 (≈ 140 µg/mL)

target: T5, Phosphatidylinositol 4,5-bisphosphate 3-kinase catalytic subunit delta isoform (Homo sapiens) (UniProt O00329); assay: Selectivity ratio of IC50 for myristoylated PI3K-delta (unknown origin) overexpressed in Rat1 cells to IC50 for PI3K-delta (unknown origin); assay type: cell-based; conditions: not given
T5 sequence (whole entry): T3 sequence (O00329 whole entry)

Structure (SMILES) | Ratio IC50
CCC(=O)N1CC[C@@H](Oc2cnc3ccc(-c4ccc(OC)c(OC)c4)cc3n2)C1 | 5
CCC(=O)N1CC[C@H](Oc2ccnc3ccc(-c4ccc(OC)nc4)cc23)C1 | 15
COc1ccc(-c2ccc3ncnc(O[C@H]4CCN(C(=O)OC(C)(C)C)C4)c3c2)cc1OC | 4
CCC(=O)N1CC[C@H](Oc2cnnc3ccc(-c4ccc(OC)nc4)cc23)C1 | 13

system: Rat1; assay: Selectivity ratio of IC50 for PI3K-delta in rat whole blood to IC50 for myristoylated PI3K-delta (unknown origin) overexpressed in Rat1 cells; assay type: cell-based; conditions: not given

Structure (SMILES) | Ratio IC50
CCC(=O)N1CC[C@@H](Oc2cnc3ccc(-c4ccc(OC)c(OC)c4)cc3n2)C1 | 4
CCC(=O)N1CC[C@H](Oc2ccnc3ccc(-c4ccc(OC)nc4)cc23)C1 | 2.3
